In PMC6026317, “Molecular elements in FGF19 and FGF21 defining KLB/FGFR activity and specificity” (Molecular Metabolism, 2018):
Ends that are not written are not given here.

How the values were obtained:
human FGFR1c/KLB = target: T1, human FGFR1c/KLB (Homo sapiens, UniProt P11362+Q86Z14); assay: AlphaScreen cell-free binding assay, displacement of biotinylated FGF21; conditions: peptides compete with FGF21 for human FGFR1/KLB complex, mean, n = 2, NC = Not Calculated due to negligible activity at the tested concentrations
T1 construct: while adding human soluble KLB generated a signal; purchased R&D Systems
T1 sequence (Q86Z14 1-996 limits assumed): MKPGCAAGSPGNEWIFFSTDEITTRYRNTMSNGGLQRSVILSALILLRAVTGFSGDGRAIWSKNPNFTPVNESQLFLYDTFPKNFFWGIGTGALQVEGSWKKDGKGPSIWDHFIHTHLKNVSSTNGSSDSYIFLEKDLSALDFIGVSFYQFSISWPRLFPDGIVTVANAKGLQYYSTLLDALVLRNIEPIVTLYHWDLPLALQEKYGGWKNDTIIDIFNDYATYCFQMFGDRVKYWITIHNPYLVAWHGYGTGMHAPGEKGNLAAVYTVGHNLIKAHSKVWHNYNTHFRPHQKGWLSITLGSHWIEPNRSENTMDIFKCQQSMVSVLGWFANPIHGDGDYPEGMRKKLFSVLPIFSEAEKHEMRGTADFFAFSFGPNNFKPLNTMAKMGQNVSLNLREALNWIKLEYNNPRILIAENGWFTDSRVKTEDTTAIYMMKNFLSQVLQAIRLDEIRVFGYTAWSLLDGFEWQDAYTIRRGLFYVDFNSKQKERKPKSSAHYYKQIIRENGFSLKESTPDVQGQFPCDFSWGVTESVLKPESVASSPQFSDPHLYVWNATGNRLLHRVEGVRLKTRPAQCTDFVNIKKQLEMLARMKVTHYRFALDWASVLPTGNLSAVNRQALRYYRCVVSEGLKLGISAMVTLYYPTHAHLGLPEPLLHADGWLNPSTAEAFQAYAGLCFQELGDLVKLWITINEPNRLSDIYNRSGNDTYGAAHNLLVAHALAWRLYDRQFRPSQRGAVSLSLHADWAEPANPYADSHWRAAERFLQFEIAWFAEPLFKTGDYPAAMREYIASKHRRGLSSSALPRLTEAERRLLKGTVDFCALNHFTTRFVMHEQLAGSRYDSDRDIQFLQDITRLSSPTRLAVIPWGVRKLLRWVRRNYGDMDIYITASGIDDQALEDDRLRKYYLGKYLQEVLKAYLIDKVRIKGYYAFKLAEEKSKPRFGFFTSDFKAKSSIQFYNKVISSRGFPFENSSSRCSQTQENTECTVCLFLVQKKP
T1 sequence (P11362 22-376 partner limits assumed): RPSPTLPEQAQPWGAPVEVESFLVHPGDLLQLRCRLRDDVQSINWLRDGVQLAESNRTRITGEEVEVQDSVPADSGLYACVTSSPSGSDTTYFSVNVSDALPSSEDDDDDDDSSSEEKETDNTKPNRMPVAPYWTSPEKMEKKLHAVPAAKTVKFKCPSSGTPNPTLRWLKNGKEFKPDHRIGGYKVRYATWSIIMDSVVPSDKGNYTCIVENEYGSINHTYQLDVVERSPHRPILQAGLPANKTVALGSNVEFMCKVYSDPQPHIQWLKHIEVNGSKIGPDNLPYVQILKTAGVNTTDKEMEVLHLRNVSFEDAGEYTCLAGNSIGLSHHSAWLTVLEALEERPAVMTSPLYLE
Experimental: Biotinylated FGF21 was coupled to Streptavidin-coated donor beads (AlphaScreen technology, Perkin Elmer), and the ectodomains of human FGFR4 fused to Fc (R&D Systems) or FGFR1c fused to Fc (R&D Systems) were coupled to Protein A acceptor beads (AlphaScreen technology, Perkin Elmer). Human KLB protein (R&D Systems) was added to the mixture of biotinylated-FGF21-Streptavidin donor beads and FGFR-Fc-Protein A acceptor beads, bringing the beads in close proximity producing a signal, in the presence of 5 μg/ml Heparin and 0.1% BSA. Increasing doses of FGF21 C-terminal peptides were added and if their binding to the receptor complex were to take place, the biotinylated FGF21 would be displaced to consequently decrease the signal. The EnVision Multilabel Plate Reader (Perkin Elmer) was used to quantify the emitted light signal at 570 nm.
Supplementary file mmc1.pdf: Multimedia component 1 Table S1. Nomenclature for FGF protein and C-terminal peptide analogs. Table S2. Receptor binding of C-terminal FGF21 Ala-scan peptides. IC50 values (μM, mean, n = 2) with fold-change for 21C25 Ala-scan peptides versus native peptide in a cell free AlphaScreen binding assay where the 21C25 Ala peptides competed with FGF21 to associate with the human FGFR1/KLB complex. NC denotes where IC50 values were Not Calculated due to negligible activity at the tested concentrations.

[1] = test system: FGF21-induced ERK phosphorylation in human KLB overexpressing 293T HEK cells (293/KLB); assay: Peptide antagonism of FGF21-induced pERK, AlphaLISA; format: cell-based; conditions: 293/KLB cells; fixed dose of FGF21, 10 min at 37° C; n = 3
Experimental: (§1) 293T HEK cells expressing KLB (or KL) or Hep3B cells were plated to 5–6 x 10^4 cells/well density in 96-well cell culture plate coated with poly-D-Lysine (Corning). The cells were serum starved for four hours in 0.1% BSA fraction V (ThermoFisher) containing media prior to treatment with protein and/or an antagonist peptide at the mentioned concentrations for 10 min at 37° C. For the antagonist assays, a chosen fixed dose within the range of 0.8–30 nM (depending on the cell type) of FGF21 or FGF19 stimulant was added to all the wells. BaF3 cells expressing human KLB/FGFR1c or human KLB/FGFR4-1c chimera were seeded at 5 × 10^5 cells/well density in 96-well cell culture plate and serum-starved overnight. FGF21/19 analogs were diluted in 0.02% Tween-20 containing RPMI1640 medium and the cells were treated for 15 min at 37° C. Following the respective cell treatments, the cells were lysed (with lysis buffer provided in the kit) for 10 min at room temperature on a shaker and the lysate was mixed with reaction mixture (consisting of reaction buffer, activation buffer, acceptor and donor beads provided in the kit). Phosphorylated ERK1/2 (pERK) levels were subsequently recorded by EnSpire Alpha or Envision Multilabel plate reader (Perkin Elmer). The cell assays corresponding to 293/KLB or Hep3B cells were carried out with AlphaLISA SureFire Ultra pERK1/2 (Thr 202/Tyr204) kit (Perkin Elmer), and BaF3 cells were done using AlphaScreen pERK1/2 (Thr202/Tyr204) kit (Perkin Elmer).
All cellular phosphorylation data were analyzed using 3-parameter non-linear regression curve in GraphPad Prism 7. Graphs are represented as relative maximal (100%) response of the positive control. All other test analog signals were adjusted accordingly as % values. For antagonistic assays, the difference between the p-ERK signal at baseline (fixed dose of FGF-stimulation, no antagonist peptide added) and the highest dose of the positive control, either FGF21^18−181, 21C25 or 19C26 for respective assay, was set to 100%. Similarly, for an agonist assay, the difference between the p-ERK signal of baseline (only cell culture medium, no agonist) and the highest dose of the positive control either FGF21 in 293/KLB cells or FGF19 in Hep3B cells was used to establish 100% response. Each peptide and protein analog was tested in triplicates in three independent experiments (n = 3), and normalized graphs plotted are expressed as mean ± SD unless otherwise noted.
The C-terminal region of FGF21 binds to KLB as previously implied by FGF21^18−181 antagonism. […] For comparative purposes, we utilized an in vitro assay in which we monitored dose-dependent attenuation of FGF-induced ERK phosphorylation in human KLB overexpressing 293T HEK cells (293/KLB).

293/KLB cells = assay: Agonist pERK AlphaLISA assay in 293/KLB cells; format: cell-based, human; conditions: 10 min at 37° C, n = 3
Experimental: as §1
All cellular phosphorylation data were analyzed using 3-parameter non-linear regression curve in GraphPad Prism 7. Graphs are represented as relative maximal (100%) response of the positive control. All other test analog signals were adjusted accordingly as % values. […] Each peptide and protein analog was tested in triplicates in three independent experiments (n = 3), and normalized graphs plotted are expressed as mean ± SD unless otherwise noted.

lean (C57BL/6J) mice = assay: In vivo peptide antagonism study, cFos and EGR1 mRNA in pancreas and eWAT; set-up: species or system mouse; conditions: WAT and pancreas
Text: All animal studies were approved by and performed according to the guidelines of the Institutional Animal Care and Use Committee of the University of Cincinnati (Cincinnati, USA). Eight-week old male C57BL/6J mice (Jackson Laboratories) were given ad libitum access to either a chow diet (lean mice), or a high-fat high-sugar diet (HFD, DIO mice) containing 58% kcal from fat (Research Diets, catalog# D12331). For DIO mice, animals were maintained on the HFD for a minimum of 3 months prior to initiation of the pharmacological studies. The mice were maintained at 22 °C on a 12-h light–dark cycle with free access to water. Before the beginning of the studies, mice were randomized into treatment groups according to body weight. All injections and tests were performed during the light cycle with a group size of n = 8.
Mice were administered vehicle, FGF21 (1 mg/kg), or FGF19 (1 mg/kg) alone or in combination with 19C26,A^26 (30 mg/kg), (dosed 15 min prior to FGF21 or FGF19 administration) via sc injections. One-hour post FGF21 or FGF19 dosing, the mice were sacrificed and their plasma, pancreas, and epididymal white adipose tissue (eWAT) were harvested for analyses. Total RNA was isolated from pancreatic and eWAT tissues using Trizol phenol-chloroform extraction (Invitrogen, Cat#155596026) and purified using an RNeasy mini (Cat#74104) and on-column DNAse digest (Cat#79254) kits (Qiagen). Following reverse transcription, levels of cFos and early growth response-1 (EGR1) mRNA levels were subsequently probed by quantitative PCR (ThermoFisher) and analyzed by ΔΔCT method.
Statistical analyses for in vivo experiments were performed on data using a one- (Figure 5A,B and 5D) or two-way (Figure 5C) ANOVA followed by Tukey post hoc multiple comparison analysis. All results are presented as mean ± SEM, n = 5–8, and P < 0.05 was considered significant. Group size estimations were based upon a power calculation to minimally yield an 80% chance to detect a significant difference in body weight of P < 0.05.

[2] = test system: FGF19 signaling in 293/KLB cells; assay: Peptide antagonism of FGF19-induced pERK, AlphaLISA; format: cell-based, human; conditions: fixed dose of FGF19, 10 min at 37° C, n = 3
Experimental: as §1, with “Following the respective cell treatments, the cells were lysed (with lysis buffer provided in the kit) for 10 min at room temperature on a shaker and the lysate was mixed with reaction mixture (consisting of reaction buffer, activation buffer, acceptor and donor beads provided in the kit).” left out, “The cell assays corresponding to 293/KLB or Hep3B cells were carried out with AlphaLISA SureFire Ultra pERK1/2 (Thr 202/Tyr204) kit (Perkin Elmer), and BaF3 cells were done using AlphaScreen pERK1/2 (Thr202/Tyr204) kit (Perkin Elmer).” left out
(§2) All cellular phosphorylation data were analyzed using 3-parameter non-linear regression curve in GraphPad Prism 7. […] Each peptide and protein analog was tested in triplicates in three independent experiments (n = 3), and normalized graphs plotted are expressed as mean ± SD unless otherwise noted.

[3] = test system: FGF19 signaling in Hep3B cells; assay: Peptide antagonism of FGF19 signaling in Hep3B cells; format: cell-based, human; conditions: n = 3
Experimental: as §1, with “Following the respective cell treatments, the cells were lysed (with lysis buffer provided in the kit) for 10 min at room temperature on a shaker and the lysate was mixed with reaction mixture (consisting of reaction buffer, activation buffer, acceptor and donor beads provided in the kit).” left out, “The cell assays corresponding to 293/KLB or Hep3B cells were carried out with AlphaLISA SureFire Ultra pERK1/2 (Thr 202/Tyr204) kit (Perkin Elmer), and BaF3 cells were done using AlphaScreen pERK1/2 (Thr202/Tyr204) kit (Perkin Elmer).” left out
as §2

[4] = test system: signaling of FGF1 in 293/KLB cells; assay: Peptide antagonism of FGF1 signaling in 293/KLB cells; format: cell-based, human; conditions: data not shown
[5] = test system: signaling of FGF23 in 293/KL cells overexpressing human Klotho; assay: Peptide antagonism of FGF23 signaling in 293/KL cells; format: cell-based; conditions: data not shown

PPDVGSSDPLSMVGPSQARSPSYAS-NH2 [174 G]
IC50 (human FGFR1c/KLB): 150 nM

19C25: FGF19-based C-terminal peptide of 25 amino acids (LETDSMDPFGLVTGLEAVRSPSFEK-NH2)
Antagonism of FGF21 signaling (pERK), in words [1]: comparable to FGF21^18−181 in their antagonistic effect

PPDVGSSDPLSMVGPSQGRSPSYAS-NH2 [21C25]
IC50 (human FGFR1c/KLB): 150 nM

FGF19: Human FGF19 (#O95750: 23–216, designated 1–194)
pERK agonist activity, in words (293/KLB cells): nanomolar potencies
cFos and EGR1 transcriptional activity, FGF alone (lean (C57BL/6J) mice; 1 mg/kg sc, one hour): induced robust transcriptional activity in each tissue

FGF2
pERK agonist activity, in words (293/KLB cells): picomolar activities

19C26: FGF19-based C-terminal peptide of 26 amino acids (169-194), C-terminal amide (PLETDSMDPFGLVTGLEAVRSPSFEK-NH2)
Antagonism of FGF21 signaling (pERK), in words [1]: comparable to FGF21^18−181 in their antagonistic effect
Antagonism of FGF19 signaling (pERK), in words [2]: blocked FGF19 activity comparably to that of FGF21
Antagonism of FGF19 signaling (pERK), in words [3]: blocked FGF19 activity comparably to that of FGF21
Attenuation of FGF1 signaling, in words [4]: unable to attenuate signaling of FGF1
Attenuation of FGF23 signaling, in words [5]: unable to attenuate signaling

19C26,A^26: 19C26 with alanine substitution of the terminal lysine; most potent peptide antagonist (PLETDSMDPFGLVTGLEAVRSPSFEA-NH2)
Antagonism of FGF21 signaling (pERK), in words [1]: at least twenty-fold greater potency
Antagonism of FGF19 signaling (pERK), in words [2]: at least twenty-fold greater potency
cFos and EGR1 mRNA levels, peptide antagonist alone (lean (C57BL/6J) mice; 30 mg/kg sc): no effect on cFos and EGR1 mRNA levels
Block of FGF19- or FGF21-stimulated cFos and EGR1 gene induction (lean (C57BL/6J) mice; antagonist 30 mg/kg sc 15 min before FGF19 or FGF21 1 mg/kg sc, one hour post dosing): completely eliminated the ability of FGF19 or FGF21 to stimulate gene induction

PPDVGSSDPLSMVGPSQGASPSYAS-NH2 [175 R]
IC50 (human FGFR1c/KLB): 50 nM

PPDVGSSDPLSMVGPSQGRSPSYAA-NH2 [181 S]
IC50 (human FGFR1c/KLB): 50 nM

21C22: C-terminal FGF21 peptide of 22 residues (VGSSDPLSMVGPSQGRSPSYAS-NH2; UniProt Q9NSA1 188-209, looked up, fragment)
Antagonism of FGF21 signaling (pERK), in words [1]: had no effect within the dose range examined
